Measurements: US20260108521A1, “GSPT1 DEGRADERS, COMPOSITIONS COMPRISING THE DEGRADER, AND METHODS OF USING THE SAME” (BIOFRONT LTD, priority 2022, published 2026)

Key:
GSPT1 protein = target: T1, GSPT1 protein (Homo sapiens, UniProt P15170+Q96SW2); test: GSPT1 degradation assay (western blot) in HL-60 cells; type: cell-based; settings: GSPT1 protein level, 2h incubation, western blot normalized to beta-Actin; for inhibition at 0.1 µM: 0.1 μM compound; for inhibition at 1 µM: 1 μM compound
T1 construct: endogenous in cells; host or cells: HL-60 cells
Method: HL-60 cells (4×10^^6 cells/well) were seeded in 6-well culture plate (Costar, 3516) and treated with a variety of concentrations of test compound. After 2h incubation, cells were collected and lysed. The protein concentration was determined by BCA protein assay kit from Thermo (23227). The GSPT1 protein level was determined by western blots, using GSPT1 polyclonal antibody. Proteins were loaded into each well of the pre-casting gels and subjected to electrophoretic separation by SDS-PAGE. The protein resolved by SDS-PAGE were transferred to PVDF, blocked by 5% skim milk and probed with anti-GSPT1 antibody (Proteintech, 10763-1-AP) or anti-β-actin antibody (CST, 3700S), using following standard western blotting procedure. Blots intensities were quantified using ImageJ software and the intensity of GSPT1 bands were normalized to beta-Actin bands, respectively. The GSPT1 degradation results were then calculated. Reported compound C84971 (see WO2021126974A1 and WO2021126973A1) was used as a reference.

HL-60 cells = test: Cell viability assay (CellTiter-Glo); type: cell-based; settings: Homo sapiens, 72 h incubation, 6-point serial dilution
Method: HL-60 cells were seeded at a density of 7000 cells per well in 96-well culture plates (Corning 3903) with IMDM and treated with test compounds following a 6-point serial dilution. RPMI 1640 (0.1% DMSO) was used as control for each well. After 72 h incubation, cell viability was determined using the CellTiter-Glo assay kit (Promega, G9242) according to the manufacturer's instructions. The dose-response curves were determined and IC50 values were calculated using the GraphPad Prism software following a nonlinear regression method.

T1 sequence (P15170 whole entry): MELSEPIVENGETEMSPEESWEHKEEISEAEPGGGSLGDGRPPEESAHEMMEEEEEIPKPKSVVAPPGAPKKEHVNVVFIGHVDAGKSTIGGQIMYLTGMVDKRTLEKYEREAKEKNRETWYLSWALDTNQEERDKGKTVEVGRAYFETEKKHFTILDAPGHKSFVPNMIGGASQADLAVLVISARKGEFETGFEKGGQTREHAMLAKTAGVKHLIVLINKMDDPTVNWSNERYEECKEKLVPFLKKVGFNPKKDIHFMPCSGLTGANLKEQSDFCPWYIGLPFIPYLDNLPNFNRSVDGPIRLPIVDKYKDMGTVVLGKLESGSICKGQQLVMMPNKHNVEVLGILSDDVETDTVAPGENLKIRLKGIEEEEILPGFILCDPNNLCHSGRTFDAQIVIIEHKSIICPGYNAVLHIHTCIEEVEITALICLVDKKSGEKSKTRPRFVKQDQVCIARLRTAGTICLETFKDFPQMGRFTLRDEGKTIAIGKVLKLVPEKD
T1 sequence (Q96SW2 whole entry): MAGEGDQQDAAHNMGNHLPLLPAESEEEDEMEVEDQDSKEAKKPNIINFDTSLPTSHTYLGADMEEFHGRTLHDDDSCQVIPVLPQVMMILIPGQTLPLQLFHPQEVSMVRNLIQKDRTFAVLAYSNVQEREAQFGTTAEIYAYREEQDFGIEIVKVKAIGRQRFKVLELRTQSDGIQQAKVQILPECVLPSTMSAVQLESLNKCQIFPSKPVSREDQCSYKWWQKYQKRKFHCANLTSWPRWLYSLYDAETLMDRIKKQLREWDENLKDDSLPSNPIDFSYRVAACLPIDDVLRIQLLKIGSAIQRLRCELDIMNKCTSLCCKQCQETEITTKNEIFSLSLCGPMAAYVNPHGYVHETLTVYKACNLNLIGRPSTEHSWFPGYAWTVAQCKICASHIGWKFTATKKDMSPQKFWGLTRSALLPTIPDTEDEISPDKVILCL
T1 sequence (Q16531 whole entry partner): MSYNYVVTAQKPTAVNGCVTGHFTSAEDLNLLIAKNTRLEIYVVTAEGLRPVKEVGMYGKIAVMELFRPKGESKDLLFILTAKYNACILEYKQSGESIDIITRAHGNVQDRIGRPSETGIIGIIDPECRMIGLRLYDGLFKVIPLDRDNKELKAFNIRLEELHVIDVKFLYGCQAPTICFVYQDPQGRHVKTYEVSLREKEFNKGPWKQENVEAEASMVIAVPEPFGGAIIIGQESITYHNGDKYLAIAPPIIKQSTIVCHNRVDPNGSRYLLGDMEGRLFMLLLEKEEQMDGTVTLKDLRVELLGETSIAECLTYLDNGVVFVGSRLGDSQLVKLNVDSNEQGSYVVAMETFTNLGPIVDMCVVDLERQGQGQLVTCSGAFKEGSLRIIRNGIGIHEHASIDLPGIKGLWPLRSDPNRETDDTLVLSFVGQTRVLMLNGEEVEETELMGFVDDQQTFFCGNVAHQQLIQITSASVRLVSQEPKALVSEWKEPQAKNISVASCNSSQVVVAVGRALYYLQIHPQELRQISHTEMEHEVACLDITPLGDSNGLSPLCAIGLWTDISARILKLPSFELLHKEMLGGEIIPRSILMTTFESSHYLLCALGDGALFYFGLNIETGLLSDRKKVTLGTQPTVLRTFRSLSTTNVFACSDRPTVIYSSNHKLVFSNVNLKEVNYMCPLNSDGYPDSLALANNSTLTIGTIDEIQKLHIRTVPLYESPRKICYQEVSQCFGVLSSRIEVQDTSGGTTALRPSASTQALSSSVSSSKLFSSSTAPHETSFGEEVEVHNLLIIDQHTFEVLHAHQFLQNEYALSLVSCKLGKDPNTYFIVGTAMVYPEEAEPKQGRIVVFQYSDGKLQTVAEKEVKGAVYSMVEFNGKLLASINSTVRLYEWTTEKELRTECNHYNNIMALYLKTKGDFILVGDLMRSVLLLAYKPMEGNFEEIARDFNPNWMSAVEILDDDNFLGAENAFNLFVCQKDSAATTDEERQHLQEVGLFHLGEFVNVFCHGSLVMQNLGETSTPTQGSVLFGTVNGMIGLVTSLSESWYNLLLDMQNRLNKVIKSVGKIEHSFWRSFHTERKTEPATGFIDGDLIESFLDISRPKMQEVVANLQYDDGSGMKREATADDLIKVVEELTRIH

| inhibition at 0.1 µM (GSPT1 protein) [%] | inhibition at 1 µM (GSPT1 protein) [%] | IC50 (HL-60 cells) [nM] | SMILES |
| --- | --- | --- | --- |
| 0 | 15 | > 1000 | O=C1CCC(N2C(=O)c3ccc(N4CCC(CN5CCCN(c6cccc(Br)c6)C5=O)CC4)cc3C2=O)C(=O)N1 (stereo not drawn) [Compound 9, 5-(4-((3-(3-bromophenyl)-2-oxotetrahydropyrimidin-1(2H)-yl)methyl)piperidin-1-yl)-2-(2,6-dioxopiperidin-3-yl)isoindoline-1,3-dione] |
| 40 | 45 | 144 | O=C1CCC(N2C(=O)c3ccc(N4CC(CCN5CCCN(c6cccc(Br)c6)C5=O)C4)cc3C2=O)C(=O)N1 (stereo not drawn) [Compound 10, 5-(3-(2-(3-(3-bromophenyl)-2-oxotetrahydropyrimidin-1(2H)-yl)ethyl)azetidin-1-yl)-2-(2,6-dioxopiperidin-3-yl)isoindoline-1,3-dione] |
| 14 | < 5 | > 1000 | O=C1CCC(N2C(=O)c3ccc(N4CCC(CN5CCCN(c6ccc7ncccc7c6)C5=O)CC4)cc3C2=O)C(=O)N1 (stereo not drawn) [Compound 11, 2-(2,6-dioxopiperidin-3-yl)-5-(4-((2-oxo-3-(quinolin-6-yl)tetrahydropyrimidin-1(2H)-yl)methyl)piperidin-1-yl)isoindoline-1,3-dione] |
| 0 | 0 | > 1000 | O=C1CCC(N2C(=O)c3ccc(N4CC(CCN5CCN(c6ccccc6)C5=O)C4)cc3C2=O)C(=O)N1 (stereo not drawn) [Compound 12, 2-(2,6-dioxopiperidin-3-yl)-5-(3-(2-(2-oxo-3-phenylimidazolidin-1-yl)ethyl)azetidin-1-yl)isoindoline-1,3-dione] |
| 30 | 57 | 290 | O=C1CCC(N2C(=O)c3ccc(N4CCC(CN5CCCN(c6cccc(C7CC7)c6)C5=O)CC4)cc3C2=O)C(=O)N1 (stereo not drawn) [Compound 15, 5-(4-((3-(3-cyclopropylphenyl)-2-oxotetrahydropyrimidin-1(2H)-yl)methyl)piperidin-1-yl)-2-(2,6-dioxopiperidin-3-yl)isoindoline-1,3-dione] |
| 15 | 38 | > 1000 | O=C1CCC(N2Cc3cc(N4CCC(CN5CCCN(c6ccccc6)C5=O)CC4)ccc3C2=O)C(=O)N1 (stereo not drawn) [Compound 19, 3-(1-oxo-5-(4-((2-oxo-3-phenyltetrahydropyrimidin-1(2H)-yl)methyl)piperidin-1-yl)isoindolin-2-yl)piperidine-2,6-dione] |
| 29 | 29 | > 1000 | O=C1CCC(N2C(=O)c3ccc(N4CC(CCN5CCCN(c6cccc(-c7cnc8c(cnn8C8CC8)c7)c6)C5=O)C4)cc3C2=O)C(=O)N1 (stereo not drawn) [Compound 22, 5-(3-(2-(3-(3-(1-cyclopropyl-1H-pyrazolo[3,4-b]pyridin-5-yl)phenyl)-2-oxotetrahydropyrimidin-1(2H)-yl)ethyl)azetidin-1-yl)-2-(2,6-dioxopiperidin-3-yl)isoindoline-1,3-dione] |
| 33 | 45 | > 1000 | O=C1CCC(N2C(=O)c3ccc(N4CC(CCN5CCCN(c6cccc(-c7cnc8ccccc8c7)c6)C5=O)C4)cc3C2=O)C(=O)N1 (stereo not drawn) [Compound 23, 2-(2,6-dioxopiperidin-3-yl)-5-(3-(2-(2-oxo-3-(3-(quinolin-3-yl)phenyl)tetrahydropyrimidin-1(2H)-yl)ethyl)azetidin-1-yl)isoindoline-1,3-dione] |
| 55 | 57 | 137 | O=C1CCC(N2C(=O)c3ccc(N4CC(CCN5CCCN(c6cccc(-c7cnc8[nH]ncc8c7)c6)C5=O)C4)cc3C2=O)C(=O)N1 (stereo not drawn) [Compound 25, 2-(2,6-dioxopiperidin-3-yl)-5-(3-{2-[2-oxo-3-(3-{1H-pyrazolo[3,4-b]pyridin-5-yl}phenyl)-1,3-diazinan-1-yl]ethyl}azetidin-1-yl)isoindole-1,3-dione] |
